Measurements taken from patent publication US10577349B2 (Sanford Burnham Prebys Medical Discovery Institute, priority 2015, dated 2020).

Test system: A375 tumors
Experiment: A375 xenograft in nude mice
Format: in vivo
Description: All animal studies were conducted in the SBMRI Animal Facility in accordance with the Institutional Animal Care and Use Committee guidelines. Six-week-old female nu/nu mice were purchased Harlan Laboratories (Indianapolis, Ind.) and allowed to acclimatize for 1 week. A375 cells (1×10^6, suspended in 200 μL sterile PBS) were injected into subcutaneous flank tissue. When the xenograft size reached ˜250 mm^3, mice were sorted into different groups. For PLX4720 and Compound 38 combination experiments, mice were either fed PLX4720-containing chow alone (AIN76A Roden Diet with 417 mg PLX4720/kg from Open Source Diets) for the control group or PLX4 720-containing chow plus an IP injection of 1 mg/kg Compound 38 twice a week. For MEKi plus Compound 38 experiments, PD0325901 at 20 mg/kg (formulated in 0.5% hydroxypropyl methylcellulose plus 0.2% Tween-80) was administered by oral gavage twice a week (Monday and Thursday) for the control group, or PD035901 plus IP injection of 1 mg/kg Compound 38 was administered twice a week (Tuesday and Friday). Mice were maintained in a pathogen-free environment with free access to food. Body weight and tumor volume were measured twice a week. Tumor size was measured with linear calipers and calculated using the formula: ([length in millimeters×(width in millimeters)2]/2). Mice were sacrificed after 4 weeks and tumors were fixed in Z-Fix (Anatech, Battle Creek, Mich.) and embedded in paraffin for immunohistochemistry.
A375 human melanomacells were injected subcutaneously (1×10^6) into the flank of nude mice and allowed to form established tumors. Once tumors reached approximately 250 mm3, mice were randomly grouped and subjected to the indicated treatments [chow containing PLX4720 (417 mg/kg) and/or Compound 38 (1 mg/kg, 2 times per week intraperitoneally)]. Tumor size was measured at the indicated time points. The experiment was repeated twice. […] When tumors were allowed to reach 500 mm^3 before initiating treatment, 5 of 7 […] mice subjected to BRAFi treatment alone relapsed as drug-resistant tumors (4/5 within 4-6 weeks), whereas only 3 of 6 (50%) subjected to combination treatment developed resistance, albeit more slowly (2/3 after 8 weeks; FIG. 22). […] Proteins prepared at the indicated times from A375 tumors that were subjected in vivo to treatment with Compound 38 were incubated with m^7GTP-beads to capture the eIF4F complex. Shown is time-dependent inhibition of eIF4G1 binding to eIF4E in vivo, concomitant with increased binding of inhibitory 4E-BP1 to eIF4E.

O=C(/C=C/c1cncc(F)c1)c1c(-c2ccccc2)c2cc(Cl)ccc2[nH]c1=O [Compound 38, 6-Chloro-3-[3-(5-fluoro-pyridin-3-yl)-acryloyl]-4-phenyl-1H-quinolin-2-one]
effect on the eIF4F complex in vivo (m7GTP-beads) (A375 tumors, treatment with both BRAFi and Compound 38, up to 8 hours): time-dependent disruption of the eIF4F complex | Growth of established tumors (~250 mm^3), combination of BRAFi plus Compound 38 (PLX4720 chow plus Compound 38 1 mg/kg, 2 times per week intraperitoneally): largely inhibited | Tumors seen in mice treated with the drug combination (treatment started at ~250 mm^3, PLX4720 chow plus Compound 38 1 mg/kg IP): 0/4
